test system: influenza virus A/New Caledonia/20/99 (H1N1) (hemagglutinin); assay: Influenza virus (hemagglutinin) inhibiting activity with fowl blood cells; type: biochemical; conditions: A/New Caledonia/20/99 (H1N1) HA split fractions; 0.5% fowl hematid; 4° C., 60 minutes

Substance	amount of derivative at which influenza virus (hemagglutinin) inhibiting activity was exhibited
Asparagine-linked Disialoundecaoligosaccharide-behenic Acid Amide [derivative 6]	37.5 µmol
Asparagine-linked Disialoundecaoligosaccharide-decanoic Acid Amide [derivative 3]	190.0 µmol
Asparagine-linked Disialoundecaoligosaccharide-myristic Acid Amide [derivative 4]	95.0 µmol
Asparagine-linked Disialoundecaoligosaccharide-stearic Acid Amide [derivative 5]	47.5 µmol

Reference: patent US7687478B2, “Disialoundecasaccharide chain asparagine/fatty acid amide and medical drug containing the same” (priority 2003, dated 2010)
